This is an account of results in patent publication US4032635A, “Pharmaceutical method for the therapy of immune diseases” (Zaidan Hojin Biseibutsu Kagaku Kenkyu Kai, priority 1975, dated 1977).

The subject of data set [1] is Delayed-Type Hypersensitivity (DTH) to sheep red blood cells (SRBC). Kind of data set: Suppression of delayed-type hypersensitivity (SRBC footpad swelling). The class given is in vivo, mouse. The following applies: for suppression of DTH reaction: anti-inflammatory drugs and protease-inhibitors, 1 mg./mouse; for inhibition in vivo at 1 mg: Erythrocyte, 1 mg./mouse i.p. The method, then:
The compounds of Formula (I) show suppression of various delayed-type hypersensitivity. In reference to the method by Lagrange [J. Exp. Med. 139, 528 (1974)], 10^8 sheep red blood cells (SRBC) without adjuvant were subcutaneously injected into the mouse hind footpad to immunize the animal. Four days later the animals were challenged by subcutaneous injection of 10^8 SRBC into another footpad. DTH response was measured as the increase in the thickness of footpad 24 hours after the injection of SRBC.
Varying doses of Compound-1 were administered orally or intraperitoneally either at the time of immunization (day 0) or challenge (day 4).
In FIG. 1 the ordinate indicates the swelling (× 0.1 mm.) of mice footpads on day 5 and the abscissa indicates the dose of Compound-1 per mouse administered by the oral (right) and intraperitoneal (left) routes. Solid line curve indicates the relationship when Compound-1 was administered on day 0 and the dotted line curve indicates the relationship when given on day 4.
The compounds were administered intraperitoneally in a dose 1 mg./mouse at the time of immunization (day 0) or challenge (day 4). Table 1 includes the results of humoral antibody response described later.

Data set [2] relates to red blood cells. Kind of data set: Heat-induced hemolysis of red blood cells / cell membrane stabilization. The class given is cell-based. The following applies: Compound-1 compared with mefenamic acid or indomethacin.
The subject of data set [3] is carrageenin-induced edema. Conditions: 1 mg./mouse; cited from earlier work.
The subject of data set [4] is humoral and cell-mediated immunities. Conditions: cited from earlier work.
Data set [5] concerns nucleic acid and/or protein synthesis. Conditions: cited from earlier work.
Data set [6] has as its system primary antibody formation to sheep red blood cells (SRBC), spleen cells. Kind of data set: Suppression of primary antibody formation (plaque forming cells, Jerne's method). The following applies: Erythrocyte, ip, 96 h; 1 mg./mouse i.p.; read-out: Suppression, Plaque Forming Cells (suppression rate of primary antibody formation). The data set is classed as in vivo, mice (ddY-strain).
Description: 10^8 sheep red blood cells (SRBC) were injected intravenously into ddY-strain mice to immunize the animals, when the compounds of Formula (I) were administered intraperitoneally.
Each compound was administered intraperitoneally in the dosage of 1 mg./mouse.

Data set [7] concerns rats. Kind of data set: One-month daily administration. The data set is classed as in vivo. Conditions: oral or i.p., daily 12.5, 50 or 200 mg./kg. The method, then: Compound-1 and Compound-2 were given orally or intraperitoneally to rats in daily doses of 12.5, 50 or 200 mg./kg., respectively, for one month.
The subject of data set [8] is systemic anaphylactic shock. Kind of data set: Suppression of systemic anaphylactic shock (egg albumin). The following applies: 1 mg./mouse i.p. at 0.5 and 5 hours before challenge. The data set is classed as in vivo, mice. Here is the method: The mice were immunized by a subcutaneous injection of a mixture of 0.1 ml. (100 mcg.) egg albumin and 0.1 ml. Freund's complete adjuvant, and used for experiment four months thereafter. In control mice sensitized in the above manner, the shock symptom emerged after induction by intravenous injection of 100 mcg. egg albumin and most of the animals died from shock within about 40 minutes.
Table 3A show the suppression effect with Compound -1 when given as a single dose (0.25 or 1.0 mg./mouse, i.p.) at the time of sensitization. […] In the animals receiving the test drug, the time until death after induction was somewhat delayed and most of the animals survived the shock.

In data set [9] the test system is passive cutaneous anaphylaxis (PCA). Kind of data set: Suppression of passive cutaneous anaphylaxis (PCA). The class given is in vivo, guinea pigs. Conditions: oral 100 mg./kg.; dilution giving a 10 mm. diameter blue zone; control 1060. Here is the method:
The compounds of Formula (I) are active in suppressing passive cutaneous anaphylaxis (PCA) in guinea pigs. Guinea pigs received intradarmally serial dilutions of antiserum (0.1 ml.), which was obtained from guinea pigs immunized with a mixture of egg albumin and Freund's complete adjuvant. At the time of sensitization with antiserum, the compound of Formula (I) was administered either orally (100 mg./kg.) or intraperitoneally (50 mg./kg.).
Four hours later the animals were challenged by intravenous injection of a mixture of 5 mg. egg albumin and Evans blue dye. The reaction was measured 30 minutes later by the blue zone which emerged at the point of antiserum injection.

The nature of data set [10]: Acute toxicity, intraperitoneal. The following applies: mouse, in vivo, ip, mice, read-out: LD50 (approximate). Here is the method:
Acute toxicological studies were carried out on mice by intraperitoneal administration of the compounds of Formula (I). The approximate LD50 values for representative compounds are given as follows: […]

Data set [11] concerns contact allergy induced by dinitrochlorobenzene (DNCB). Kind of data set: Suppression of contact allergy induced by dinitrochlorobenzene (DNCB). The class given is in vivo, guinea pigs. Also noted: key to Skin Lesion Score, Animal No. 1 / Skin Lesion Score, Animal No. 2 / Skin Lesion Score, Animal No. 3: +: slight erythema; ++: marked erythema and slight swelling; +++: marked induration and swelling. Conditions: 100 mg./kg. i.p. at 0.5, 24 and 48 hours before challenge. Here is the method:
For example, approximately 0.1 ml. of a 10% solution of DNCB in acetone was administered percutaneously on the ear. Fourteen days later animals were skin tested on a shaved flank by topical spotting (about 0.05 ml.) of a 0.1% solution of DNCB in acetone. Skin lesions were evaluated and scored 24 hours later as follows:
Guinea pigs readily develop contact hypersensitivities of the delayed-type by simple topical application of DNCB.

Like-named read-outs stand apart in the source and are kept apart here. Where a SMILES comes first, the peptide text is derived from it. [ ]: non-standard residue; d: D form. The star is where a group is joined. Sta = CC(C)C[C@H](N)[C@@H](O)CC(=O)O; Isovaleryl = CC(C)CC(=O)*

As for `Cc1cccc(Nc2ccccc2C(=O)O)c1C` [mefenamic acid], the “suppression of DTH reaction” value in data set [1] is given as “little suppression of this DTH reaction”. Moreover, the “suppression of heat-induced hemolysis of red blood cells” value in [2] is reported as “about the same extent”. In [3], the “suppression of carrageenin-induced edema” value was “strongly suppress carrageenin-induced edema”.
As to `COc1ccc2c(c1)c(CC(=O)O)c(C)n2C(=O)c1ccc(Cl)cc1` [indomethacin], in data set [1], the “suppression of DTH reaction” value is given as “little suppression of this DTH reaction”. The “suppression of heat-induced hemolysis of red blood cells” value in [2] is reported as “about the same extent”. For the same compound, in [3], the “suppression of carrageenin-induced edema” value is listed as “strongly suppress carrageenin-induced edema”.
Turning to `Cn1cnc([N+](=O)[O-])c1Sc1ncnc2nc[nH]c12` [azathioprine], in data set [4], the “dose at which effective / cytotoxicity” value is “effective in general only at near-lethal doses owing to their cytotoxicity”; the “inhibition of humoral and cell-mediated immunities” value is “inhibit both humoral and cell-mediated immunities”. In addition, the “effect on nucleic acid and/or protein synthesis” value in data set [5] was “disrupt nucleic acid and/or protein synthesis”.
For the compound `O=C(Nc1cc(Cl)cc(Cl)c1O)c1ccccc1O` [Compound-2, 3',5'-Dichloro-2,2'-dihydroxybenzanilide], the inhibition in vivo at 1 mg in data set [1] (96 h, at challenge (day 4), read-out: Suppression, Delayed-Type Hypersensitivity, Administered at Induction (suppression rate)) was greater than 75%. Besides, the inhibition in vivo at 1 mg in [1] (ip, 0 h, at immunization (day 0), read-out: Suppression, Delayed-Type Hypersensitivity, Administered at Immunization (suppression rate)) is 0 to 25%. For the same compound, the inhibition in vivo at 1 mg in data set [6] was greater than 75%. Besides, in data set [7], the “symptoms or abnormality attributable to the drug” value is reported as “no particular symptoms or abnormality attributable to the drug dosage was noted” and the weight gain entry was “normal”. Moreover, in [8] (control 15), the “time of death after induction, Mouse No. 1” value was found to be 10 min. For the same compound, in [8] (control 18), the “time of death after induction, Mouse No. 2” value is 35 min. Also, the “Max. Dilution of Antiserum, Oral” value in [9] was found to be 736. Moreover, the LD50 (usually the dose at which mortality reaches 50%) in [10] amounted to 2500 mg/kg. Besides, the “inhibition of the response to DNCB” value in data set [11] is “significant inhibition of the response to DNCB”. Further, in [11] (control None +++), the “Skin Lesion Score, Animal No. 1” value is “+”; the “Skin Lesion Score, Animal No. 2” value is recorded as “++”; the “Skin Lesion Score, Animal No. 3” value is listed as “++”.
Turning to `CC(=O)N[C@@H](CC(C)C)C(=O)N[C@@H](CC(C)C)C(=O)N[C@H](C=O)CCCNC(=N)N` [leupeptin, reference compound], the “suppression of DTH reaction” value in data set [1] is “little suppression of this DTH reaction”. The “suppression of carrageenin-induced edema” value in data set [3] was “strongly suppress carrageenin-induced edema”.
As for `CC(C)CC(=O)N[C@H](C(=O)N[C@H](C(=O)N[C@@H](CC(C)C)[C@@H](O)CC(=O)N[C@@H](C)C(=O)N[C@@H](CC(C)C)[C@@H](O)CC(=O)O)C(C)C)C(C)C` [pepstatin, reference compound] (Isovaleryl-VV[Sta]A[Sta]-OH), the “suppression of DTH reaction” value in [1] is reported as “little suppression of this DTH reaction”. Also, the “suppression of carrageenin-induced edema” value in data set [3] is “strongly suppress carrageenin-induced edema”.
